From PubChem BioAssay AID248 (DTP/NCI, 2004)
Several values for one entry are separate records, joined by “and”; a condition that tells them apart may be missing. Identical values can stand only once. Toxic doses and inconclusive results are not listed. Rule as the data show it: active = T/C of 150% or more; inactive = T/C below 125%.

Test system: L1210 leukemia ip in BDF1 mice, survival T/C
Assay: NCI In Vivo Anticancer Drug Screen. Data for tumor model L1210 Leukemia (intraperitoneal) in B6D2F1 (BDF1) mice
Settings: endpoint: mean survival time, higher = longer survival
Summary of the method: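 Each compound was tested against a transplantable tumor grown in mice. The endpoint was survival, with treated animals benchmarked against vehicle controls as a simple ratio.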

[1] = dose: 100.0 mg/kg/injection, schedule: Q01DX009 (ip), vehicle: saline with Tween-80
[2] = dose: 200.0 mg/kg/injection, schedule: Q01DX009 (ip), vehicle: saline with Tween-80
[3] = dose: 400.0 mg/kg/injection, schedule: Q01DX009 (ip), vehicle: saline with Tween-80
[4] = dose: 100.0 mg/kg/injection, schedule: Q01DX001 (ip), vehicle: carboxymethylcellulose (CMC)
[5] = dose: 200.0 mg/kg/injection, schedule: Q01DX001 (ip), vehicle: carboxymethylcellulose (CMC)
[6] = dose: 400.0 mg/kg/injection, schedule: Q01DX001 (ip), vehicle: carboxymethylcellulose (CMC)
[7] = dose: 100.0 mg/kg/injection, schedule: Q01DX009 (ip), vehicle: Klucel (hydroxypropylcellulose) (HPC)
[8] = dose: 200.0 mg/kg/injection, schedule: Q01DX009 (ip), vehicle: Klucel (hydroxypropylcellulose) (HPC)
[9] = dose: 400.0 mg/kg/injection, schedule: Q01DX009 (ip), vehicle: Klucel (hydroxypropylcellulose) (HPC)
[10] = dose: 75.0 mg/kg/injection, schedule: Q01DX001 (ip), vehicle: saline
[11] = dose: 150.0 mg/kg/injection, schedule: Q01DX001 (ip), vehicle: saline

Measured: T/C

CCCCCCCCCCC(=O)[O][Hg][c]1ccccc1
inactive: dose: 9.38 mg/kg/injection, schedule: Q01DX001 (ip), vehicle: saline 98 % of control | dose: 18.75 mg/kg/injection, schedule: Q01DX001 (ip), vehicle: saline 93 % of control

Nc1ncc(Br)cc1Br
inactive: [1] 94 % of control | dose: 100.0 mg/kg/injection, schedule: Q04DX003 (ip), vehicle: saline with Tween-80 101 % of control | [2] 108 % of control | dose: 200.0 mg/kg/injection, schedule: Q04DX003 (ip), vehicle: saline with Tween-80 95 % of control | [3] 116 % of control | dose: 400.0 mg/kg/injection, schedule: Q04DX003 (ip), vehicle: saline with Tween-80 97 % of control

OCC1OC(CO)(OC2CC3C(O)CC(O)CC3OC2c2cc(O)c(O)c(O)c2)C(O)C1O (centres undefined)
inactive: [4] 103 % of control | [5] 93 % of control | [6] 92 % of control

CC(C)C(O)(C(=O)NN)C(=O)NN
inactive: [7] 100 % of control | dose: 100.0 mg/kg/injection, schedule: Q04DX003 (ip), vehicle: saline 105 % of control | [8] 90 % of control | dose: 200.0 mg/kg/injection, schedule: Q04DX003 (ip), vehicle: saline 96 % of control | [9] 93 % of control | dose: 400.0 mg/kg/injection, schedule: Q04DX003 (ip), vehicle: saline 103 % of control

Cc1c(-c2ccccc2)sc(/N=C/c2cc(Br)cc(Br)c2O)c1C#N
inactive: [1] 99 % of control and 111 % of control | dose: 100.0 mg/kg/injection, schedule: Q04DX002 (ip), vehicle: saline with Tween-80 112 % of control and 90 % of control | [2] 97 % of control and 86 % of control | dose: 200.0 mg/kg/injection, schedule: Q04DX002 (ip), vehicle: saline with Tween-80 93 % of control and 102 % of control | [3] 94 % of control | dose: 400.0 mg/kg/injection, schedule: Q04DX002 (ip), vehicle: saline with Tween-80 106 % of control and 107 % of control

CC[CH2][Sn]([CH2]CC)([CH2]CC)[O][Sn]([CH2]CC)([CH2]CC)[CH2]CC
inactive: dose: 0.5 mg/kg/injection, schedule: Q01DX009 (ip), vehicle: saline 95 % of control | dose: 1.0 mg/kg/injection, schedule: Q01DX009 (ip), vehicle: saline 100 % of control | dose: 1.0 mg/kg/injection, schedule: Q04DX003 (ip), vehicle: saline with Tween-80 97 % of control | dose: 2.0 mg/kg/injection, schedule: Q01DX009 (ip), vehicle: saline 93 % of control | dose: 2.0 mg/kg/injection, schedule: Q04DX003 (ip), vehicle: saline with Tween-80 90 % of control

CC(C)CC([NH-])C(=O)[O-].O=C(O)C(=O)O.[Co+3].[NH-]CCN(CC[NH-])CC[NH-]
inactive: dose: 50.0 mg/kg/injection, schedule: Q01DX001 (ip), vehicle: other 92 % of control | dose: 100.0 mg/kg/injection, schedule: Q01DX001 (ip), vehicle: other 100 % of control | dose: 200.0 mg/kg/injection, schedule: Q01DX001 (ip), vehicle: other 94 % of control | dose: 400.0 mg/kg/injection, schedule: Q01DX001 (ip), vehicle: other 86 % of control

CCCCC(CC)CC1C(=O)NC(=S)NC1=O (centres undefined)
inactive: [10] 97 % of control | [11] 98 % of control

O=C(CBr)c1cccc2c1cc(Br)c1ccccc12
inactive: dose: 13.3 mg/kg/injection, schedule: Q01DX Z (ip), vehicle: methylcellulose (MC) 94 % of control | dose: 20.0 mg/kg/injection, schedule: Q01DX Z (ip), vehicle: methylcellulose (MC) 93 % of control | dose: 30.0 mg/kg/injection, schedule: Q01DX Z (ip), vehicle: methylcellulose (MC) 100 % of control

CN(C)c1ncnc2c1ncn2C1OC(CO)C2NP(=O)(N(CCCl)CCCl)OC21 (centres undefined)
inactive: [10] 103 % of control | [11] 119 % of control

O=C(O)/C=C\Br
inactive: dose: 25.0 mg/kg/injection, schedule: Q01DX009 (ip), vehicle: Klucel (hydroxypropylcellulose) (HPC) 91 % of control | dose: 50.0 mg/kg/injection, schedule: Q01DX005 (ip), vehicle: Klucel (hydroxypropylcellulose) (HPC) 95 % of control | dose: 50.0 mg/kg/injection, schedule: Q01DX009 (ip), vehicle: Klucel (hydroxypropylcellulose) (HPC) 106 % of control | dose: 100.0 mg/kg/injection, schedule: Q01DX005 (ip), vehicle: Klucel (hydroxypropylcellulose) (HPC) 103 % of control | [7] 98 % of control

O=C(CCN1CCOCC1)c1csc2ccccc12
inactive: [4] 102 % of control | [5] 102 % of control | [6] 96 % of control

CC(=O)N(C(C)C)C(C)C
inactive: dose: 0.75 mg/kg/injection, schedule: Q01DX001 (ip), vehicle: saline with Tween-80 100 % of control | dose: 1.5 mg/kg/injection, schedule: Q01DX001 (ip), vehicle: saline with Tween-80 97 % of control | dose: 3.0 mg/kg/injection, schedule: Q01DX001 (ip), vehicle: saline with Tween-80 102 % of control | dose: 3.12 mg/kg/injection, schedule: Q01DX001 (ip), vehicle: saline with Tween-80 98 % of control | dose: 12.5 mg/kg/injection, schedule: Q01DX001 (ip), vehicle: saline with Tween-80 100 % of control

Nc1c(Br)cc2c(c1Br)C(=O)c1cc(Br)ccc1-2
inactive: [4] 92 % of control | [5] 94 % of control | [6] 97 % of control

N#Cc1ccc2c(c1)Cc1cc([N+](=O)[O-])ccc1-2
inactive: [4] 100 % of control | [5] 105 % of control | [6] 91 % of control

NC(CSC(c1ccccc1)(c1ccccc1)c1ccc(C(=O)O)cc1)C(=O)O (centres undefined)
inactive: dose: 12.5 mg/kg/injection, schedule: Q01DX009 (ip), vehicle: water 106 % of control | dose: 25.0 mg/kg/injection, schedule: Q01DX009 (ip), vehicle: water 102 % of control and 103 % of control | dose: 50.0 mg/kg/injection, schedule: Q01DX009 (ip), vehicle: water 103 % of control and 100 % of control | dose: 100.0 mg/kg/injection, schedule: Q01DX009 (ip), vehicle: water 101 % of control and 108 % of control | dose: 200.0 mg/kg/injection, schedule: Q01DX009 (ip), vehicle: water 102 % of control | dose: 400.0 mg/kg/injection, schedule: Q01DX009 (ip), vehicle: water 97 % of control and 102 % of control

Cc1ccc(Nc2cc(=O)[nH]c(N)n2)cc1Cl
inactive: dose: 100.0 mg/kg/injection, schedule: Q01DX Z (ip), vehicle: methylcellulose (MC) 86 % of control | dose: 200.0 mg/kg/injection, schedule: Q01DX Z (ip), vehicle: methylcellulose (MC) 103 % of control

O=C(SCCN1CCCC1)C(O)(c1ccccc1)C1CCCC1 (centres undefined)
inactive: dose: 75.0 mg/kg/injection, schedule: Q01DX001 (ip), vehicle: carboxymethylcellulose (CMC) 92 % of control | dose: 150.0 mg/kg/injection, schedule: Q01DX001 (ip), vehicle: carboxymethylcellulose (CMC) 96 % of control | dose: 300.0 mg/kg/injection, schedule: Q01DX001 (ip), vehicle: carboxymethylcellulose (CMC) 96 % of control

CCCC[n+]1cccc2ccccc21
inactive: dose: 25.0 mg/kg/injection, schedule: Q01DX001 (ip), vehicle: Klucel (hydroxypropylcellulose) (HPC) 105 % of control | dose: 50.0 mg/kg/injection, schedule: Q01DX001 (ip), vehicle: Klucel (hydroxypropylcellulose) (HPC) 100 % of control | [4] 96 % of control

COc1ccc(Cl)cc1NC(=O)Oc1ccc(NC(C)=O)cc1
inactive: [7] 96 % of control | [8] 102 % of control | [9] 98 % of control

Cc1cc(C)c(NC(N)=S)cc1C
inactive: dose: 100.0 mg/kg/injection, schedule: Q04DX002 (ip), vehicle: Klucel (hydroxypropylcellulose) (HPC) 92 % of control | dose: 200.0 mg/kg/injection, schedule: Q04DX002 (ip), vehicle: Klucel (hydroxypropylcellulose) (HPC) 94 % of control

CCCNC(c1ccccc1)=[N+]1C(C)CCCC1C (centres undefined)
inactive: dose: 12.5 mg/kg/injection, schedule: Q04DX002 (ip), vehicle: saline 101 % of control | dose: 25.0 mg/kg/injection, schedule: Q04DX002 (ip), vehicle: saline 109 % of control
